# Counter-ions that a name gives are not always drawn.
# Molecular target: T1, human mTOR (Homo sapiens, UniProt P42345)
# T1 construct: purchased Invitrogen
# Test: Inhibition of mTOR (Example A, LanthaScreen TR-FRET, GFP-4E-BP1 substrate)
# Assay type: biochemical
# Conditions: inhibition of human mTOR in the assay of Example A
# Description: Example A Inhibition of mTOR
# Purified mTOR are purchased from Invitrogen. mTOR activity was determined using Invitrogen's LanthaScreen system. The inhibitory properties of compounds relative to mTOR may be determined using a black 384-well-plate format in the following buffer 50 mM Hepes, 10 mM NaCl, 10 mM MgCl2, 0.2 mM EDTA, 0.01% Brij35, 2 mM DTT at pH7.3. The test compound is prepared in DMSO using 2 fold serial dilutions for 11 data points which are added to the buffer so that each dilution contains 3% DMSO.
# An Assay for mTOR Inhibition is as Follows:
# Combine in each well 2 μl of 1.2 μM GFP-4E-BP1 (Invitrogen) and 150 μM ATP (in buffer), 2 μl of diluted test compound (3% DMSO in buffer), and 2 μl of 6 nM mTor in buffer. The reaction mixture is then incubated at room temperature for 30 min, and quenched by adding 40 mM ETDA with 4 nM Tb-anti-p4E-BP1 [pThr46] antibody in TR-FRET dilution buffer (Invitrogen). The plate is kept at room temperature for 1 hour and then read using PheraStar (BMG labtech) LanthaScreen mode.
# pIC50 values, the negative of the log of the IC50, are calculated by non-linear curve fitting of the compound concentrations and percent of inhibition to the standard pIC50 equation.
row,SMILES,IC50
1,"CNC(=O)Nc1ccc(-c2ncc3c(n2)N2CCOC[C@]2(C)C(=O)N3CC2CC2)cc1 [Example 3, (R)-1-(4-(5-(cyclopropylmethyl)-6a-methyl-6-oxo-5,6,6a,7,9,10-hexahydro-[1,4]oxazino[3,4-h]pteridin-2-yl)phenyl)-3-methylurea]",< 0.0316 µM
2,"CC(F)(F)CN1C(=O)C2(C)COCCN2c2nc(-c3ccc(NC(=O)NC4CC4)cc3)ncc21 (centres unmarked) [Example 47, 1-cyclopropyl-3-(4-(5-(2,2-difluoropropyl)-6a-methyl-6-oxo-5,6,6a,7,9,10-hexahydro-[1,4]oxazino[3,4-h]pteridin-2-yl)phenyl)urea]",< 0.0316 µM
3,"CCNC(=O)Nc1ccc(-c2ncc3c(n2)N2CCOC[C@@]2(C)C(=O)N3CC2CC2)cc1 [Example 7, (S)-1-(4-(5-(cyclopropylmethyl)-6a-methyl-6-oxo-5,6,6a,7,9,10-hexahydro-[1,4]oxazino[3,4-h]pteridin-2-yl)phenyl)-3-ethylurea]",< 0.0316 µM
4,"CNC(=O)Nc1ccc(-c2ncc3c(n2)N2C[C@@H](C)OC[C@]2(C)C(=O)N3CC2CC2)cc1 [Example 19, 1-(4-((6aR,9R)-5-(cyclopropylmethyl)-6a,9-dimethyl-6-oxo-5,6,6a,7,9,10-hexahydro-[1,4]oxazino[3,4-h]pteridin-2-yl)phenyl)-3-methylurea]",0.0316 to 1 µM
5,"CNC(=O)Nc1ccc(-c2ncc3c(n2)N2CCOC[C@@]2(C)C(=O)N3CCCOC)cc1 [Example 36, (S)-1-(4-[5-(3-methoxypropyl)-6a-methyl-6-oxo-5,6,6a,7,9,10-hexahydro[1,4]oxazino[3,4-h]pteridin-2-yl]phenyl)-3-methylurea]",< 0.0316 µM
6,"CNC(=O)Nc1ccc(-c2ncc3c(n2)N2CCOCC2(C)C(=O)N3Cc2ccn(C)n2)cc1 (centres unmarked) [Example 11, 1-methyl-3-(4-(6a-methyl-5-((1-methyl-1H-pyrazol-3-yl)methyl)-6-oxo-5,6,6a,7,9,10-hexahydro-[1,4]oxazino[3,4-h]pteridin-2-yl)phenyl)urea]",0.0316 to 1 µM
7,"CNC(=O)Nc1ccc(-c2ncc3c(n2)N2CCOC[C@@]2(C)C(=O)N3CC2CC2)cc1 [Example 4, (S)-1-(4-(5-(cyclopropylmethyl)-6a-methyl-6-oxo-5,6,6a,7,9,10-hexahydro-[1,4]oxazino[3,4-h]pteridin-2-yl)phenyl)-3-methylurea]",0.0316 to 1 µM
8,"CNC(=O)Nc1ccc(-c2ncc3c(n2)N2CCOCC2(C)C(=O)N3C(C)(C)C(=O)O)cc1 (centres unmarked) [Example 20, 2-methyl-2-(6a-methyl-2-(4-(3-methylureido)phenyl)-6-oxo-6a,7,9,10-tetrahydro-[1,4]oxazino[3,4-h]pteridin-5(6H)-yl)propanoic acid TFA salt]",> 1 µM
9,"C[C@@]12COCCN1c1nc(-c3ccc(NC(=O)NC4CC4)cc3)ncc1N(CC1CC1)C2=O [Example 9, (S)-1-cyclopropyl-3-(4-(5-(cyclopropylmethyl)-6a-methyl-6-oxo-5,6,6a,7,9,10-hexahydro-[1,4]oxazino[3,4-h]pteridin-2-yl)phenyl)urea]",< 0.0316 µM
10,"CC(F)(F)CN1C(=O)[C@]2(C)COCCN2c2nc(-c3ccc(NC(=O)NC4CC4)cc3)ncc21 [Example 49, (S)-1-cyclopropyl-3-(4-(5-(2,2-difluoropropyl)-6a-methyl-6-oxo-5,6,6a,7,9,10-hexahydro-[1,4]oxazino[3,4-h]pteridin-2-yl)phenyl)urea]",< 0.0316 µM
11,"CCNC(=O)Nc1ccc(-c2ncc3c(n2)N2CCOCC2(C)C(=O)N3CC2CC2)cc1 (centres unmarked) [Example 5, 1-(4-(5-(cyclopropylmethyl)-6a-methyl-6-oxo-5,6,6a,7,9,10-hexahydro-[1,4]oxazino[3,4-h]pteridin-2-yl)phenyl)-3-ethylurea, TFA salt]",< 0.0316 µM
12,"CNC(=O)Nc1ccc(-c2ncc3c(n2)N2CCOCC2(C)C(=O)N3CC(C)(C)C)cc1 (centres unmarked) [Example 28, 1-methyl-3-(4-(6a-methyl-5-neopentyl-6-oxo-5,6,6a,7,9,10-hexahydro-[1,4]oxazino[3,4-h]pteridin-2-yl)phenyl)urea]",< 0.0316 µM
13,"CC12COCCN1c1nc(-c3ccc(NC(=O)NC4CC4)cc3)ncc1N(C1CCOC1)C2=O (centres unmarked) [Example 30, 1-cyclopropyl-3-(4-(6a-methyl-6-oxo-5-(tetrahydrofuran-3-yl)-5,6,6a,7,9,10-hexahydro-[1,4]oxazino[3,4-h]pteridin-2-yl)phenyl)urea]",< 0.0316 µM
14,"CNC(=O)Nc1ccc(-c2ncc3c(n2)N2CCOCC2(C)C(=O)N3C(C)C)cc1 (centres unmarked) [Example 15, 1-(4-(5-isopropyl-6a-methyl-6-oxo-5,6,6a,7,9,10-hexahydro-[1,4]oxazino[3,4-h]pteridin-2-yl)phenyl)-3-methylurea]",< 0.0316 µM
15,"CNC(=O)Nc1ccc(-c2ncc3c(n2)N2CCOC[C@@]2(C)C(=O)N3C2CCOCC2)cc1 [Example 26, (S)-1-methyl-3-(4-(6a-methyl-6-oxo-5-(tetrahydro-2H-pyran-4-yl)-5,6,6a,7,9,10-hexahydro-[1,4]oxazino[3,4-h]pteridin-2-yl)phenyl)urea]",< 0.0316 µM
16,"COCCCN1C(=O)[C@]2(C)COCCN2c2nc(-c3ccc(NC(=O)NC4CC4)cc3)ncc21 [Example 41, (S)-1-cyclopropyl-3-(4-(5-(3-methoxypropyl)-6a-methyl-6-oxo-5,6,6a,7,9,10-hexahydro-[1,4]oxazino[3,4-h]pteridin-2-yl)phenyl)urea]",< 0.0316 µM
17,"CC12COCCN1c1nc(-c3ccc(NC(=O)NC4CC4)cc3)ncc1N(CC1CC1)C2=O (centres unmarked) [Example 6, 1-cyclopropyl-3-(4-(5-(cyclopropylmethyl)-6a-methyl-6-oxo-5,6,6a,7,9,10-hexahydro-[1,4]oxazino[3,4-h]pteridin-2-yl)phenyl)urea, TFA salt]",0.0316 to 1 µM
18,"CNC(=O)Nc1ccc(-c2ncc3c(n2)N2CCOCC2(C)C(=O)N3CC2CCC2)cc1 (centres unmarked) [Example 16, 1-(4-(5-(cyclobutylmethyl)-6a-methyl-6-oxo-5,6,6a,7,9,10-hexahydro-[1,4]oxazino[3,4-h]pteridin-2-yl)phenyl)-3-methylurea]",< 0.0316 µM
19,"CNC(=O)Nc1ccc(-c2ncc3c(n2)N2CCOCC2(C)C(=O)N3C2CC2)cc1 (centres unmarked) [Example 17, 1-(4-(5-cyclopropyl-6a-methyl-6-oxo-5,6,6a,7,9,10-hexahydro-[1,4]oxazino[3,4-h]pteridin-2-yl)phenyl)-3-methylurea]",0.0316 to 1 µM
20,"CNC(=O)Nc1ccc(-c2ncc3c(n2)N2CCO[C@@H](C)[C@@]2(C)C(=O)N3CC2CC2)cc1 [Example 18, 1-(4-((6aS,7S)-5-(cyclopropylmethyl)-6a,7-dimethyl-6-oxo-5,6,6a,7,9,10-hexahydro-[1,4]oxazino[3,4-h]pteridin-2-yl)phenyl)-3-methylurea]",< 0.0316 µM
21,"CNC(=O)Nc1ccc(-c2ncc3c(n2)N2CCOCC2(C)C(=O)N3C[C@H](O)CO)cc1 (stereo partly drawn) [Example 22, 1-(4-(5-((S)-2,3-dihydroxypropyl)-6a-methyl-6-oxo-5,6,6a,7,9,10-hexahydro-[1,4]oxazino[3,4-h]pteridin-2-yl)phenyl)-3-methylurea]",0.0316 to 1 µM
22,"C[C@]12COCCN1c1nc(-c3ccc(NC(=O)NC4CC4)cc3)ncc1N(CC(F)(F)F)C2=O [Example 53, (R)-1-cyclopropyl-3-(4-(6a-methyl-6-oxo-5-(2,2,2-trifluoroethyl)-5,6,6a,7,9,10-hexahydro-[1,4]oxazino[3,4-h]pteridin-2-yl)phenyl)urea]",< 0.0316 µM
23,CNC(=O)Nc1ccc(-c2ncc3c(n2)N2CCOC[C@@]2(C)C(=O)N3C[C@H](O)CO)cc1 [Example 23],0.0316 to 1 µM
24,"CNC(=O)Nc1ccc(-c2ncc3c(n2)N2CCOCC2(C)C(=O)N3CCCOC)cc1 (centres unmarked) [Example 35, 1-(4-[5-(3-methoxypropyl)-6a-methyl-6-oxo-5,6,6a,7,9,10-hexahydro[1,4]oxazino[3,4-h]pteridin-2-yl]phenyl)-3-methylurea]",< 0.0316 µM
25,"CC12COCCN1c1nc(-c3ccc(NC(=O)NC4CC4)cc3)ncc1N(C1CCS(=O)(=O)CC1)C2=O (centres unmarked) [Example 45, 1-cyclopropyl-3-(4-[5-(1,1-dioxidotetrahydro-2H-thiopyran-4-yl)-6a-methyl-6-oxo-5,6,6a,7,9,10-hexahydro[1,4]oxazino[3,4-h]pteridin-2-yl]phenyl)urea]",0.0316 to 1 µM
26,"CNC(=O)Nc1ccc(-c2nc(N3CCOCC3)c3c(n2)N2CCOCC2(C)C(=O)N3C)cc1 (centres unmarked) [Example 14, 1-(4-(5,6a-dimethyl-4-morpholino-6-oxo-5,6,6a,7,9,10-hexahydro-[1,4]oxazino[3,4-h]pteridin-2-yl)phenyl)-3-methylurea]",0.0316 to 1 µM
27,"CNC(=O)Nc1ccc(-c2ncc3c(n2)N2CCOCC2(C)C(=O)N3CC2CC2)cc1 (centres unmarked) [Example 1, 1-(4-(5-(cyclopropylmethyl)-6a-methyl-6-oxo-5,6,6a,7,9,10-hexahydro-[1,4]oxazino[3,4-h]pteridin-2-yl)phenyl)-3-methylurea]",< 0.0316 µM
28,CNC(=O)Nc1ccc(-c2ncc3c(n2)N2CCOC[C@]2(C)C(=O)N3C[C@H](O)CO)cc1 [Example 24],> 1 µM
29,"CC12COCCN1c1nc(-c3ccc(NC(=O)NC4CC4)cc3)ncc1N(CCCS(C)(=O)=O)C2=O (centres unmarked) [Example 46, 1-cyclopropyl-3-(4-(6a-methyl-5-(3-(methylsulfonyl)propyl)-6-oxo-5,6,6a,7,9,10-hexahydro-[1,4]oxazino[3,4-h]pteridin-2-yl)phenyl)urea]",< 0.0316 µM
